Assay results published in patent US20030017186A1, “Carboxylic acid fluorides as pesticides” (priority 1999, published 2003).

How the values were obtained:
[1] = test system: House longhorn beetle (Hylotrupes bajulus) larvae; assay: Fumigation test in glass vessel, house longhorn beetle larvae in wood blocks; type: in vivo; details: HYLOBA larvae in wood blocks
[2] = test system: Common furniture beetle (Anobium punctatum); assay: Fumigation test in glass vessel, common furniture beetles; type: in vivo; details: ANOBPU beetles; Example 5; ACF 50.6/48.2/51.4 g/m^3, SF 47.4/44.6/41 g/m^3 (1st/2nd/3rd fumigation); 23/23/22° C.
From the text: b2) Common furniture beetle (Anobium punctatum)=[…]
(§1) The test organisms, separated by species, were placed into a glass vessel measuring 30 cm×30 cm×60 cm, which was sealed with a glass lid so as to be airtight. The adults and the larvae of the mealworm beetle (Tenebrio molitor) and the broad-horned flour beetle (Gnathocerus cornutus) were placed into small glass vessels approximately 5 cm in diameter, which were closed with a gauze lid and in which they could freely move about. The larvae of the rice weevil had burrowed into seeds of grain. The wood pest larvae were inserted into small blocks of wood measuring 5 cm×2.5 cm×2 cm. The openings were sealed with wads of cotton wool. Only one each of the larvae of the house longhorn beetle (Hylotrupes bajulus) was inserted into a piece of wood, while 6-8 larvae of the common furniture beetle (Anobium punctatum) were inserted into each piece of wood.
(§2) The respective gas was then introduced into the fumigation vessel through a gas line from a gas tank that contained the specified amount of gas. After a defined time period, the fumigation vessel was purged with compressed air. The discharged gas was purified by an attached gas scrubber.
(§3) The beetles were observed until they died. This point was recorded for each species. The larvae of the wood pests as well as the larvae of the rice weevil (Sitophilus oryzae) had to be picked out of the wood or the grain to check their condition. If any of the animals were still alive, the wooden test blocks remaining in the vessel were fumigated again and were reexamined after the corresponding time span had elapsed. The same number of animals in the untreated control was also checked at each point.
(§4) The vitality of the animals was checked at certain time intervals. The beetles could be observed through the fumigation vessel. This was also true for the larvae of the mealworm beetle and the broad-horned flour beetle. The wooden test blocks of the wood pest larvae were opened with hammer and chisel. Tweezers were used to pull the rice weevil larvae out of the grain seeds. The exact time intervals and the number of the evaluated pests were documented in the test results.

[3] = test system: Common furniture beetle (Anobium punctatum) larvae; assay: Fumigation test in glass vessel, common furniture beetle larvae in wood blocks; type: in vivo; details: ANOBPU larvae in wood blocks
[4] = test system: Mealworm beetle (Tenebrio molitor); assay: Fumigation test in glass vessel, mealworm beetles; type: in vivo; details: TENEMO beetles
[5] = test system: Rice weevil (Sitophilus oryzae) larvae; assay: Fumigation test in glass vessel, rice weevil larvae in grain seeds; type: in vivo; details: SITTOR larvae in grain seeds
From the text: a2) Rice weevil (Sitophilus oryzae)=SITTOR
as §1, §2, §3, §4

[6] = test system: Broad-horned flour beetle (Gnathocerus cornutus); assay: Fumigation test in glass vessel, broad-horned flour beetles; type: in vivo; details: GNATCO beetles
[7] = test system: Broad-horned flour beetle (Gnathocerus cornutus) larvae; assay: Fumigation test in glass vessel, broad-horned flour beetle larvae; type: in vivo; details: GNATCO larvae
[8] = test system: American drywood termites (Cryptotermes brevis); assay: Termite control fumigation test, Cryptotermes brevis; type: in vivo; details: Example 6
From the text: (§5) c) American drywood termites (Cryptotermes brevis)=CRYPBR, and Incisitermes tabogae=INCITA
as §1, §2, §3, §4

[9] = test system: Incisitermes tabogae; assay: Termite control fumigation test, Incisitermes tabogae; type: in vivo; details: Example 6
From the text: as §5, §1, §2, §3, §4

[10] = test system: termites; assay: Termite control fumigation test (overall statements); type: in vivo, Cryptotermes brevis, Incisitermes tabogae; details: Example 6
From the text: as §5, §1, §2, §3
as §4, with “The wooden test blocks of the wood pest larvae were opened with hammer and chisel. Tweezers were used to pull the rice weevil larvae out of the grain seeds.” left out

[11] = Example 5, ACF 50.6/48.2/51.4 g/m^3, SF 47.4/44.6/41 g/m^3 (1st/2nd/3rd fumigation), 23/23/22° C.
[12] = Example 7, ACF 53.0/54.6/0 g/m^3, second gas (SF) 43.6/41.4/39.8 g/m^3 (1st/2nd/3rd fumigation), 20.0/20.2/19.8 C.
[13] = Example 4, gas 36.5 g/m^3, 19.3° C., 54% rel. air humidity
[14] = CRYPBR termites, ACF 50.0/53.8 g/m^3, SF 47.8/44.8 g/m^3 (1st/2nd fumigation), 23.7/24° C.
[15] = INCITA termites, ACF 50.0/53.8 g/m^3, SF 47.8/44.8 g/m^3 (1st/2nd fumigation), 23.7/24° C.

CC(=O)F [ACF, acetyl fluoride]
Number alive, 1 hr. after Start of Fumigation [1, 11]: 0
Number alive, 3 hrs. after Start of Fumigation [1, 11]: 1
Number alive, 6 hrs after Start of Fumigation [1, 11]: 0
Number dead, 1 hr. after Start of Fumigation [1, 11]: 4
Number dead, 3 hrs. after Start of Fumigation [1, 11]: 2
Number dead, 6 hrs after Start of Fumigation [1, 11]: 7
Number alive, 1 hr. after 1st Fumigation [1, 12]: 2
Number alive, 3 hrs. after 1st Fumigation [1, 12]: 0
Number dead, 1 hr. after 1st Fumigation [1, 12]: 3
Number dead, 3 hrs. after 1st Fumigation [1, 12]: 10
Number alive, 30 min. after Start of Fumigation [2]: 0
Number dead, 30 min. after Start of Fumigation [2]: 6
Number alive, 1 hr. after Start of Fumigation [3, 11]: 1
Number alive, 3 hrs. after Start of Fumigation [3, 11]: 2
Number alive, 6 hrs after Start of Fumigation [3, 11]: 0
Number dead, 1 hr. after Start of Fumigation [3, 11]: 3
Number dead, 3 hrs. after Start of Fumigation [3, 11]: 2
Number dead, 6 hrs after Start of Fumigation [3, 11]: 8
Number alive, 1 hr. after 1st Fumigation [3, 12]: 5
Number alive, 3 hrs. after 1st Fumigation [3, 12]: 2
Number alive, 6 hrs after 1st Fumigation [3, 12]: 4
Number dead, 1 hr. after 1st Fumigation [3, 12]: 1
Number dead, 3 hrs. after 1st Fumigation [3, 12]: 4
Number dead, 6 hrs after 1st Fumigation [3, 12]: 2
Number alive, 1 hr. after Start of Fumigation [4, 13]: 0
Number dead, 1 hr. after Start of Fumigation [4, 13]: 10
Number alive, 30 min. after Start of Fumigation [4, 11]: 0
Number dead, 30 min. after Start of Fumigation [4, 11]: 10
Number alive, 30 min. after 1st Fumigation [4, 12]: 0
Number dead, 30 min. after 1st Fumigation [4, 12]: 10
Number alive, 24 hrs. after Start of Fumigation [5, 13]: 0
Number dead, 24 hrs. after Start of Fumigation [5, 13]: 25
Number alive, 1 hr. after Start of Fumigation [5, 11]: 0
Number dead, 1 hr. after Start of Fumigation [5, 11]: 15
Number alive, 1 hr. after Start of Fumigation [6, 13]: 13
Number alive, 2 hrs. after Start of Fumigation [6, 13]: 3
Number alive, 12 hrs. after Start of Fumigation [6, 13]: 0
Number dead, 1 hr. after Start of Fumigation [6, 13]: 12
Number dead, 2 hrs. after Start of Fumigation [6, 13]: 22
Number dead, 12 hrs. after Start of Fumigation [6, 13]: 25
Number alive, 30 min. after Start of Fumigation [6, 11]: 0
Number dead, 30 min. after Start of Fumigation [6, 11]: 15
Number alive, 30 min. after 1st Fumigation [6, 12]: 0
Number dead, 30 min. after 1st Fumigation [6, 12]: 15
Number alive, 1 hr. after Start of Fumigation [7, 13]: 0
Number dead, 1 hr. after Start of Fumigation [7, 13]: 25
Number alive, 30 min. after Start of Fumigation [7, 11]: 0
Number dead, 30 min. after Start of Fumigation [7, 11]: 15
Number alive, 30 min. after 1st Fumigation [7, 12]: 0
Number dead, 30 min. after 1st Fumigation [7, 12]: 15
Number alive, 30 min. after 1st Fumigation [8, 14]: 180
Number alive, 1 hr. after 1st Fumigation [8, 14]: 60
Number alive, 3 hrs. after 1st Fumigation [8, 14]: 0
Number dead, 30 min. after 1st Fumigation [8, 14]: 0
Number dead, 1 hr. after 1st Fumigation [8, 14]: 0
Number dead, 3 hrs. after 1st Fumigation [8, 14]: 120
Effectiveness against Cryptotermes [8]: particularly effective
Condition of Cryptotermes on reexamination after 24-hour observation period ([8]; animals fumigated 1 hour, then 24-hour observation): dead
Number of Incisitermes still alive on reexamination after 24-hour observation period ([9]; out of 30 animals fumigated 1 hour, then 24-hour observation): 3
Number alive, 30 min. after 1st Fumigation [9, 15]: 90
Number alive, 1 hr. after 1st Fumigation [9, 15]: 30
Number alive, 3 hrs. after 1st Fumigation [9, 15]: 0
Number dead, 30 min. after 1st Fumigation [9, 15]: 0
Number dead, 1 hr. after 1st Fumigation [9, 15]: 0
Number dead, 3 hrs. after 1st Fumigation [9, 15]: 60
Effectiveness against termites in comparison test ([10]; compared with SO2F2): as effective as SO2F2
Speed of effect on termites in wood ([10]; compared with sulfuryl fluoride, penetrates wood more quickly): slightly faster effect
